The text below walks through data of patent publication US11884708B2, “Stapled peptide inhibitors of nemo as potential anti-inflammatory and anti-cancer drugs” (INSTITUT PASTEUR, priority 2015, dated 2024).

Data set [1] deals with 70Z3-C3 cells. Nature of the data set: Cellular uptake of BODIPY-labeled peptides by FACS. In kind it is cell-based. The following applies: for reduction of the uptake of A-UBI-SAHND306-Q313 by endocytosis inhibitor: 30 min pre-incubation, nystatin 50 μg/ml, chlorpromazine 10 μg/ml, ethylisopropylamiloride 100 μM. The method, then: 2.2×10^5 cells in 100 μl of 70Z3-C3 were incubated with either 10 μM or with various doses of 10 μM, 5 μM and 1 μM of labeled-peptides at 37° C., 5% CO2. Similarly to fluorescence microscopy experiments, cells alone or incubated with BODIPY®-labeled BSA (ref) or BODIPY®-UBI devoid of the antennapedia cell penetrating sequence were used as negative control, whereas cells with BA-UBI [1] at 10 μM were used as positive control. After 2 h incubation, cells were washed 4 times with PBS at room temperature, and finally diluted 1:3 in PBS before subjected to FACS analysis. Along with the BODIPY® fluorophore the fluorescence intensity was recorded at 525±25 nm using the Gallios Flow cytometer (Beckman Coulter) to analyse each cells sample. Each internalization peptide was assessed by gating a population of 15,000 events and the data were analysed using Kaluza software version 1.2.
For determination of cellular uptake by flow cytometry, the BA-UBI-SAHND306-Q313 stapled peptide was first incubated with 2.2×10^5 70Z3-C3 cells in […] either at 4° C. or 37° C. for 2 h. Bodipy-labeled BSA, bodipy alone and bodipy-UBI were used as negative controls to verify the washing quality and efficient removal of any non-specific binding at the cell surface before FACS analysis. […] After 2 h of incubation, cells were washed four times with PBS at room temperature and diluted at 1:3 in PBS for FACS analysis. Samples were analyzed as previously described in the European patent (No: 15307137.8).

In data set [2] the target is CC2-LZ domain of NEMO (Mus musculus, UniProt O88522). Nature of the data set: Fluorescence anisotropy/polarization binding assay. The conditions noted are these: for Kd: fixed peptide concentration 0.1 μM, read-out: Binding affinity (FP) at 0.1 μM; for Binding affinity (FP) at 10 μM: fixed peptide concentration 10 μM.
Experimental: Measurements were performed on a Tecan infinite F500 equipped with polarizing filters and using excitation and emission wavelengths at 485 nm and 535 nm, respectively. Anisotropy data were calculated using the Magellan software version 6.5. Prior experiments, the mouse CC2-LZ was extensively dialyzed in binding buffer containing 20 mM HEPES pH 7.4, 100 mM NaCl, and 0.05% P20 detergent (v/v). All experiments were performed in a 384 well plate (vol 25 μl) at room temperature. The BODIPY®-labeled peptide concentrations were fixed at 0.1 or 10 μM whereas the CC2-LZ concentration varied from 0 to 100 μM. Reference calibrated at 22 mP, was based on the fluorescence of the peptide alone. Each experimental binding curve was determined from at least 10 independent concentration points. The G-factor was calculated as previously described in Agou et al. [7], with a value of 0.75, which was observed constant within 5% upon all titrations. For analysis, the blank value corresponding to the value of buffer alone, was subtracted from all titration data.
All NEMO peptides were conjugated to an extra N-terminal cysteine with the fluorophore BODIPY® or FITC to determine their binding affinity for the CC2-LZ domain of NEMO (also called NOA or UBAN) by fluorescence polarization. For each peptide titration, various concentration of the target ranging from 0 to 100 μM and a fixed concentration of peptide at 0.1 or 10 μM were used at 25° C. […] For these reasons, all further titration experiments were performed with a fixed peptide concentration of 0.1 μM unless otherwise indicated.
The nature of data set [3]: Temperature-induced denaturation followed by CD. It is filed as physicochemical. The following applies: 30 μM or 300 μM, ΔCp ≈ 0; for Tm: thermal denaturation by CD; for ΔH: van't Hoff enthalpy change at Tm. The method, then: Temperature-induced denaturation experiments were performed by measuring the ellipticity at 222 nm from 1° C. to 95° C. in 1° C. steps, at a rate of 1° C./min, with a 2 nm bandwidth. Thermodynamic parameters including the melting temperature (Tm) and the van't Hoff enthalpy change at the melting temperature (ΔHm) were determined by fitting the denaturation curves with the Gibbs-Helmholtz equation as described elsewhere, [10]. The heat capacity change (ΔCp) was assumed to be 0 as judged by ΔHm which yielded similar values within 10% at two independent peptide concentrations (30 and 300 μM). The ellipticity was converted to differential extinction coefficient Δε (M^−1·cm^−1) per residue taking into account the peptide concentration determined by amino acid analysis.
Thermal stability of the peptides was also investigated by performing thermal denaturation profiles followed by CD (FIGS. 1 C and D and Table III). […] Indeed, the helicity of UBI-Aib (49%) is only 1.16-fold increased at 1° C. compared to UBI (42%), while its melting temperature (Tm=−8° C.) is 2.25 times higher than that of UBI (Tm=−18° C.).

The nature of data set [4]: CD spectroscopy, α-helical content. In kind it is physicochemical. The conditions noted are these: 50 μM peptide, phosphate buffer pH 7.0, UBI in TFE taken as 100%.
For data set [5], the target named is NF-κB pathway (Mus musculus, UniProt O88522). Nature of the data set: NF-κB inhibition assay, LPS-stimulated 70Z3-C3 lacZ reporter cells. It is filed as cell-based. The following applies: 70Z3-C3 cells, 2 h peptide then LPS 4 h; N.I = No inhibition observed; read-out: IC 50 NF-κB inhibition. From the text:
The stable cell line of pre-B lymphocyte 70Z3-C3 cells expressing the lacZ reporter gene under the control of NF-κB was previously described. OCI-Ly3 (ABC-DLBCL, MALT1 dependent) and OCI-Ly7 (GCB-DLBCL). U2932 (ABC-DLBCL, MALT1 independent) were purchased from DSMZ (Deutsche Sammlung von Mikroorganismen and Zellkulturen) and HLY1 (ABC-DLBCL, MALT1 independent). Jurkat T-cells were obtained after transduction of lentiviruses containing a NF-κB reporter luciferase gene as previously described. All cell lines were grown in RPMI 1640 medium supplemented with 10% FBS, 10 μg/ml of streptomycin, 10 U/ml of penicillin and kept at 37° C., in a 5% CO2 humidified incubator. 0.05 mM of β-mercaptoethanol was added for 70Z3-C3. Primary and secondary antibodies were as following: polyclonal rabbit anti NF-κB p65, (sc-372, Santa Cruz Biotechnology, Inc) Alexa-488 coupled goat anti-rabbit IgG1 (Invitrogen) NF-κB inhibition assay was almost similar to those previously described in [1], except that luminescence data were monitored with a Centro XS^3, LB960 luminometer (Berthold technologies.), which is more sensitive. All experiments were performed in duplicates in 96-well plates. […] After 4 h incubation, cells were centrifuged 7 min at 400×g, at 4° C.

Where a SMILES comes first, the peptide text is derived from it. Bridges are numbered along the chain shown (N, C = ends). [ ]: non-standard residue; d: D form. The star is where a group is joined. BODIPYFLEthylmaleimide = Cc1cc(C)n2c1C=C1C=CC(CCC(=O)NCCN3C(=O)CC(*)C3=O)=[N+]1[B-]2(F)F; R8 = C=CCCCCCC[C@@](C)(N)C(=O)O; S5 = C=CCCC[C@](C)(N)C(=O)O

CC2-LZ domain of NEMO, sequence (O88522 242-343 limits assumed): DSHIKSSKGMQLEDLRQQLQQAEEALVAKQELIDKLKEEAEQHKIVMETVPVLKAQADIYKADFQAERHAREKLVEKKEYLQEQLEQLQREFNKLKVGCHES
NF-κB pathway, sequence (O88522 whole entry): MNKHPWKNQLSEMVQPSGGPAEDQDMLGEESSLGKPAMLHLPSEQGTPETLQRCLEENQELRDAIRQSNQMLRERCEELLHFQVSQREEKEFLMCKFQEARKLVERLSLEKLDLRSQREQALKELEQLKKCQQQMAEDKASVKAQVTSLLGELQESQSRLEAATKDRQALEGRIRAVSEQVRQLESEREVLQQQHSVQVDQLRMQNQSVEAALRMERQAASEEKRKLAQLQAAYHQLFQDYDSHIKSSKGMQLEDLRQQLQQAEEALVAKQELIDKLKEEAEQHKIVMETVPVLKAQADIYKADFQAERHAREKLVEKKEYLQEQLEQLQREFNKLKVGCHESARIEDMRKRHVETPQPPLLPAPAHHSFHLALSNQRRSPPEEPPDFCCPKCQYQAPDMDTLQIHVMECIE

For `CN(C)CCCN1c2ccccc2Sc2ccc(Cl)cc21` [chlorpromazine, reference compound], the inhibition at 10 µg/mL in data set [1] (read-out: reduction of the uptake of A-UBI-SAHND306-Q313 by endocytosis inhibitor) was 59%.

For `CC[C@H](C)[C@@H]1NC(=O)[C@](C)(NC(=O)[C@H](C)NC(=O)[C@H](CCC(N)=O)NC(=O)[C@H](C)NC(=O)[C@H](CCCCN)NC(=O)[C@H](CC(C)C)NC(=O)[C@H](CSC2CC(=O)N(CCNC(=O)CCC3=[N+]4C(=Cc5c(C)cc(C)n5[B-]4(F)F)C=C3)C2=O)NC(C)=O)CCCCCCC=CCCC[C@@](C)(C(=O)N[C@@H](C)C(=O)N[C@@H](CCC(=O)OC)C(=O)N[C@@H](CCCNC(=N)N)C(=O)N[C@@H](Cc2c[nH]cn2)C(=O)N[C@@H](C)C(=O)N[C@@H](CCCNC(=N)N)C(=O)N[C@@H](CCC(=O)OC)C(=O)N[C@@H](CCCCN)C(N)=O)NC(=O)[C@H](Cc2ccccc2)NC(=O)[C@H](CCCNC(=N)N)NC(=O)[C@H](C)NC(=O)[C@H](CCCCN)NC(=O)[C@H](Cc2ccc(O)cc2)NC1=O` (stereo partly shown) [UBI-SAHN D306-Q313 OMe, LKAQAX2IYKARFX5AX7RHARX9K] (Ac-C(BODIPYFLEthylmaleimide)LKAQA[R8]IYKARF[S5]AE(OMe)RHARE(OMe)K-NH2; staple 7-14), in data set [1], the “cell internalization by FACS, in words” value is “became cell permeable”. The Kd in data set [2] worked out at 24 ± 5 µM.

For `C[C@@H]1[C@H](O)[C@@H](C)/C=C/C=C/CC/C=C/C=C/C=C/C=C/C(O[C@H]2O[C@H](C)[C@@H](O)[C@H](N)[C@@H]2O)CC2O[C@](O)(CC(O)C(O)CCC(O)CC(O)CC(O)CC(=O)O[C@H]1C)CC(O)C2C(=O)O` (stereo partly shown) [nystatin, reference compound], the “reduction of the uptake of A-UBI-SAHND306-Q313 by endocytosis inhibitor” value in data set [1] stood at 50%.

Consider `CC[C@H](C)[C@@H]1NC(=O)[C@H](CC(=O)O)NC(=O)[C@H](C)NC(=O)[C@H](CCC(N)=O)NC(=O)[C@](C)(NC(=O)[C@H](CCCCN)NC(=O)[C@H](CC(C)C)NC(=O)[C@H](CSC2CC(=O)N(CCNC(=O)CCC3=[N+]4C(=Cc5c(C)cc(C)n5[B-]4(F)F)C=C3)C2=O)NC(C)=O)CCCCCC/C=C/CCC[C@@](C)(C(=O)N[C@@H](CCCNC(=N)N)C(=O)N[C@@H](Cc2ccccc2)C(=O)N[C@@H](CCC(N)=O)C(=O)N[C@@H](C)C(=O)N[C@@H](CCC(=O)O)C(=O)N[C@@H](CCCNC(=N)N)C(=O)N[C@@H](Cc2c[nH]cn2)C(=O)N[C@@H](C)C(=O)N[C@@H](CCCNC(=N)N)C(=O)N[C@@H](CCC(=O)O)C(=O)N[C@@H](CCCCN)C(N)=O)NC(=O)[C@H](CCCCN)NC(=O)[C@H](Cc2ccc(O)cc2)NC1=O` (stereo partly shown) [UBI-SAHN A303-A310 (B)] (Ac-C(BODIPYFLEthylmaleimide)LK[R8]QADIYK[S5]RFQAERHAREK-NH2; staple (E) 4-11; N-terminus and C-terminus assumed), for which, in data set [3], the ΔS entry is reported as “B: −21 cal. mol^−1.K^−1”, the Tm is listed as 33 ± 0.3 C° and the ΔH entry was “B: −6510 (cal. mol)^−1”. Moreover, the “Binding affinity (FP) at 10 μM” value in data set [2] is given as “weak binding”. For the same compound, the “α-helical content at 1° C.” value in data set [4] is on record as “B: 80%”. Further, the “α-helical content at 1° C.” value in data set [4] (listed as UBI-SAHNA303-A310 (B)) was 80%.

Take `CC[C@H](C)[C@@H]1NC(=O)[C@H](CC(=O)O)NC(=O)[C@H](C)NC(=O)[C@H](CCC(N)=O)NC(=O)[C@](C)(NC(=O)[C@H](CCCCN)NC(=O)[C@H](CC(C)C)NC(=O)[C@H](CCCCN)NC(=O)[C@H](CCCCN)NC(=O)[C@H](Cc2c[nH]c3ccccc23)NC(=O)[C@H](CCCCN)NC(=O)[C@H](CCSC)NC(=O)[C@H](CCCNC(=N)N)NC(=O)[C@H](CCCNC(=N)N)NC(=O)[C@H](CC(N)=O)NC(=O)[C@H](CCC(N)=O)NC(=O)[C@H](Cc2ccccc2)NC(=O)[C@H](Cc2c[nH]c3ccccc23)NC(=O)[C@@H](NC(=O)[C@H](CCCCN)NC(=O)[C@@H](NC(=O)[C@H](CCC(N)=O)NC(=O)[C@H](CCCNC(=N)N)NC(=O)[C@H](CSC2CC(=O)N(CCNC(=O)CCC3=[N+]4C(=Cc5c(C)cc(C)n5[B-]4(F)F)C=C3)C2=O)NC(C)=O)[C@@H](C)CC)[C@@H](C)CC)CCCCCCC=CCCC[C@@](C)(C(=O)N[C@@H](CCCNC(=N)N)C(=O)N[C@@H](Cc2ccccc2)C(=O)N[C@@H](CCC(N)=O)C(=O)N[C@@H](C)C(=O)N[C@@H](CCC(=O)O)C(=O)N[C@@H](CCCNC(=N)N)C(=O)N[C@@H](Cc2c[nH]cn2)C(=O)N[C@@H](C)C(=O)N[C@@H](CCCNC(=N)N)C(=O)N[C@@H](CCC(=O)O)C(=O)N[C@@H](CCCCN)C(N)=O)NC(=O)[C@H](CCCCN)NC(=O)[C@H](Cc2ccc(O)cc2)NC1=O` (single isomer, unassigned) [A-UBI-SAHN A303-A310 (B)]: the IC50 in data set [5] came out at 0.6 µM.

On to `CC[C@H](C)[C@@H]1NC(=O)[C@](C)(NC(=O)[C@H](C)NC(=O)[C@H](CCC(N)=O)NC(=O)[C@H](C)NC(=O)[C@H](CCCCN)NC(=O)[C@H](CC(C)C)NC(=O)[C@H](CSC2CC(=O)N(CCNC(=O)CCC3=[N+]4C(=Cc5c(C)cc(C)n5[B-]4(F)F)C=C3)C2=O)NC(C)=O)CCCCCCC=CCCC[C@@](C)(C(=O)N[C@@H](C)C(=O)N[C@@H](CCC(=O)O)C(=O)N[C@@H](CCCNC(=N)N)C(=O)N[C@@H](Cc2c[nH]cn2)C(=O)N[C@@H](C)C(=O)N[C@@H](CCCNC(=N)N)C(=O)N[C@@H](CCC(=O)O)C(=O)N[C@@H](CCCCN)C(N)=O)NC(=O)[C@H](Cc2ccccc2)NC(=O)[C@H](CCCNC(=N)N)NC(=O)[C@H](C)NC(=O)[C@H](CCCCN)NC(=O)[C@H](Cc2ccc(O)cc2)NC1=O` (single isomer, unassigned) [UBI-SAHN D306-Q313 (A)], for which, in data set [3], the ΔS result is given as “A: −16 - cal. mol^−1.K^−1”, the Tm was 35 ± 0.3 C° and the ΔH entry was “A: −4800 - (cal. mol)^−1”. Moreover, in data set [2], the Kd was found to be 34 ± 6 µM and the “Binding affinity (FP) at 10 μM” value is “Very weak”. In data set [4], the “α-helical content at 1° C.” value is recorded as “A: 75% -”.

Regarding `CCN(c1nc(N)c(C(=O)N=C(N)N)nc1Cl)C(C)C` [ethylisopropylamiloride, 5-(N-ethyl-N-isopropyl) amiloride, reference compound], in data set [1], the “reduction of the uptake of A-UBI-SAHND306-Q313 by endocytosis inhibitor” value turned out to be 26%.

Turning to `CC[C@H](C)[C@@H]1NC(=O)[C@](C)(NC(=O)[C@H](C)NC(=O)[C@H](CCC(N)=O)NC(=O)[C@H](C)NC(=O)[C@H](CCCCN)NC(=O)[C@H](CC(C)C)NC(=O)[C@H](CSC2CC(=O)N(CCNC(=O)CCC3=[N+]4C(=Cc5c(C)cc(C)n5[B-]4(F)F)C=C3)C2=O)NC(C)=O)CCCCCCC=CCCC[C@@](C)(C(=O)N[C@@H](C)C(=O)N[C@@H](CCC(N)=O)C(=O)N[C@@H](CCCNC(=N)N)C(=O)N[C@@H](Cc2c[nH]cn2)C(=O)N[C@@H](C)C(=O)N[C@@H](CCCNC(=N)N)C(=O)N[C@@H](CCC(N)=O)C(=O)N[C@@H](CCCCN)C(N)=O)NC(=O)[C@H](Cc2ccccc2)NC(=O)[C@H](CCCNC(=N)N)NC(=O)[C@H](C)NC(=O)[C@H](CCCCN)NC(=O)[C@H](Cc2ccc(O)cc2)NC1=O` (stereo partly shown) [UBI-SAHN D306-Q313 Q/Q] (Ac-C(BODIPYFLEthylmaleimide)LKAQA[R8]IYKARF[S5]AQRHARQK-NH2; staple 7-14), the “cell internalization by FACS, in words” value in data set [1] is recorded as “became cell permeable”.
